Assay results as given in ChEMBL document CHEMBL3137667, “[Drug-induced liver injury; fourteenth updated edition of the bibliographic database of liver injuries and related drugs]” (Gastroenterol Clin Biol, 2004).

Legend:
[1] = human
[2] = human; remark: listed apart in the source
[3] = human, serum
[4] = Highest frequency of acute liver toxicity observed during clinical trials, expressed as a percentage. [column '% AIGUE' in source]; settings: human
[5] = human; remark: listed apart in the source
[6] = Highest frequency of moderate liver toxicity observed during clinical trials, expressed as a percentage. [column '% BIOL' in source]; settings: human
[7] = human; remark: listed apart in the source
[8] = human, serum, 4383 h
[9] = Proposed mechanism(s) of liver damage. [column 'MEC' in source]; settings: human
[10] = human; remark: listed apart in the source
[11] = human, serum; remark: listed apart in the source
[12] = human; remark: listed apart in the source
[13] = human; remark: listed apart in the source
[14] = human; remark: listed apart in the source
[15] = human; remark: listed apart in the source
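Wherever Hepatotoxicity (association with vascular disease) is given: count of indexed literature references reporting vascular liver injury in humans, e.g. peliosis hepatitis, hepatic veno-occlusive disease or Budd-Chiari syndrome.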
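Wherever Hepatotoxicity (benign tumour) is given: value is a count of indexed literature references citing a benign tumour confirmed by histopathology.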
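Wherever Hepatotoxicity (choleostasis) is given: human cholestatic liver injury, shown by histopathology or by peak ALT or AST elevation over alkaline phosphatase ratio below 2, value counts indexed literature reports.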
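Wherever Hepatotoxicity (chronic liver disease) is given: chronic liver injury confirmed by histopathology or persistently raised serum aminotransferase activity beyond 6 months, value given as the count of indexed literature references.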
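Wherever Hepatotoxicity (cirrhosis) is given: value is a count of indexed literature references reporting cirrhosis confirmed by histopathology.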
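Wherever Hepatotoxicity (cytolytic) is given: human cytolytic liver injury, shown by histopathology or by a ratio above 5 of peak ALT or AST elevation to alkaline phosphatase elevation, value counts indexed references.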
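Wherever Hepatotoxicity (granulomatous hepatitis) is given: value is a count of indexed literature references reporting granulomatous liver disease confirmed by histopathology.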
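Wherever Hepatotoxicity (malignant tumour) is given: malignant tumour confirmed by histopathology, value gives the count of indexed literature references reporting it.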
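Wherever Hepatotoxicity (severe hepatitis) is given: human clinical data: severe hepatitis, meaning potentially life-threatening liver failure or clinically observed cases, the value counts how many indexed literature references report it.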
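Wherever Hepatotoxicity (steatosis) is given: steatosis confirmed by histopathology, value is the count of indexed references.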

SMILES | Hepatotoxicity (cirrhosis) [1] | Hepatotoxicity (malignant tumour) [2] | Hepatotoxicity (acute) [3] | Hepatotoxicity (acute) [4] [%] | Hepatotoxicity (cytolytic) [5] | Hepatotoxicity (moderate) [6] [%] | Hepatotoxicity (benign tumour) [7] | Hepatotoxicity (chronic liver disease) [8] | Hepatotoxicity (mechanism) [9] | Hepatotoxicity (severe hepatitis) [10] | Hepatotoxicity (moderate) [11] | Hepatotoxicity (choleostasis) [12] | Hepatotoxicity (steatosis) [13] | Hepatotoxicity (association with vascular disease) [14] | Hepatotoxicity (granulomatous hepatitis) [15] | other results
O=C[C@H](O)[C@@H](O)[C@H](O)[C@H](O)CO[C@H]1O[C@H](CO[C@H]2O[C@H](CO)[C@@H](O)[C@H](O)[C@H]2O)[C@@H](O)[C@H](O)[C@H]1O [DEXTRAN] | 0 | 0 | 0 | 0 | 0 | 43.7 | 0 | 0 | Dose-dependant | 0 | 2 | 0 | 0 | 0 | 0 | 
CO[C@@H]1[C@@H](N)[C@@H](O[C@H]2[C@H](Oc3cccc4c(O)c5c(=O)oc6ccc(C)c7c(=O)oc(c34)c5c67)O[C@H](C)[C@H](O)[C@]2(C)O)O[C@H](C)[C@@H]1O [ELSAMITRUCIN] | 0 | 0 | 2 | 1.6 | 0 | 13 | 0 | 0 | Dose-dependant | 1 | 4 | 0 | 0 | 0 | 0 | 
C[C@@](O)(/C=C/[C@H]1CC=CC(=O)O1)[C@@H](C[C@@H](O)\C=C/C=C\C=C\CO)OP(=O)(O)O [FOSTRIECIN] | 0 | 0 | 0 | 0 | 0 | 5 | 0 | 0 | Dose-dependant | 0 | 1 | 0 | 0 | 0 | 0 | 
CCCCCCCCCCCCCCCCSCC(COC)COP(=O)([O-])OCC[N+](C)(C)C (stereo not given) [ILMOFOSINE] | 0 | 0 | 0 | 0 | 0 | 71.4 | 0 | 0 | Dose-dependant | 0 | 5 | 0 | 0 | 0 | 0 | 
Cc1cnc(NC(=O)C2=C(O)c3ccccc3S(=O)(=O)N2C)s1 [MELOXICAM] | 0 | 0 | 1 |  | 0 |  | 0 | 0 | Dose-dependant |  | 6 | 0 | 0 | 0 | 0 | Hepatotoxicity (acute) ([4]; Liver): 0%; Hepatotoxicity (moderate) ([6]; Liver): 11.5%; Hepatotoxicity (severe hepatitis) ([10]; Liver): 0
C=CCC1(C(C)C#CCC)C(=O)N=C(O)N(C)C1=O (stereo not given) [METHOHEXITAL] | 0 | 0 | 0 | 0 | 0 | 0 | 0 | 0 | Dose-dependant | 0 | 1 | 0 | 0 | 0 | 0 | 
CCC1(CC)C(=O)NCC(C)C1=O (stereo not given) [METHYPRYLON] | 0 | 0 | 1 | 0 | 1 | 0 | 0 | 0 | Dose-dependant | 0 | 1 | 1 | 0 | 0 | 0 | 
O=C1CN(/N=C/c2ccc([N+](=O)[O-])o2)C(=O)N1CO [NIFURTOINOL] | 0 | 0 | 0 | 0 | 0 | 0 | 0 | 2 | Allergic | 0 | 0 | 0 | 0 | 0 | 0 | 
CO[C@@H]1[C@@H](OC(N)=O)[C@@H](O)[C@H](Oc2ccc3c(O)c(NC(=O)c4ccc(O)c(CC=C(C)C)c4)c(=O)oc3c2C)OC1(C)C [NOVOBIOCIN] | 0 | 0 | 5 | 0 | 2 | 40 | 0 | 0 | Allergic, Dose-dependant | 2 | 2 | 3 | 0 | 0 | 0 | 
Nc1nc2[nH]cc(CCc3ccc(C(=O)N[C@@H](CCC(=O)O)C(=O)O)cc3)c2c(=O)[nH]1 [PEMETREXED] | 0 | 0 | 0 | 0 | 0 | 100 | 0 | 0 | Dose-dependant | 0 | 1 | 0 | 0 | 0 | 0 | 
COc1ccc(OC)c(Cc2cnc3nc(N)nc(N)c3c2C)c1 [PIRITREXIM] | 0 | 0 | 0 | 0 | 0 | 12.1 | 0 | 0 | Dose-dependant | 0 | 7 | 0 | 0 | 0 | 0 | 
CC(Cc1ccccc1)NCCC(c1ccccc1)c1ccccc1 (stereo not given) [PRENYLAMINE] | 0 | 0 | 0 | 0 | 0 | 7.7 | 0 | 0 | Dose-dependant | 0 | 1 | 0 | 0 | 0 | 0 | 
[H]/N=C(/N)N[C@H]1[C@H](O)[C@@H](O)[C@H](O[C@@H]2O[C@@H](C)[C@](O)(C=O)[C@H]2O[C@@H]2O[C@@H](CO)[C@H](O)[C@@H](O)[C@@H]2NC)[C@@H](N/C(N)=N\[H])[C@@H]1O [STREPTOMYCIN] | 0 | 0 | 4 |  |  |  | 0 | 0 |  |  | 1 |  | 0 | 0 |  | Hepatotoxicity (acute) ([4]; Liver): 0%; Hepatotoxicity (cytolytic) ([5]; Liver): 2; Hepatotoxicity (moderate) ([6]; Liver): 0%; Hepatotoxicity (mechanism) ([9]; Liver): Allergic; Hepatotoxicity (severe hepatitis) ([10]; Liver): 0; Hepatotoxicity (choleostasis) ([12]; Liver): 1; Hepatotoxicity (granulomatous hepatitis) ([15]; Liver): 0
CC1(C)S[C@@H]2[C@H](NC(=O)C(c3ccccc3)S(=O)(=O)O)C(=O)N2[C@H]1C(=O)O (stereo not given in full) [SULBENICILLIN] | 0 | 0 | 3 | 1 | 0 | 6.7 | 0 | 0 | Allergic | 0 | 3 | 2 | 0 | 0 | 0 | 
